Experimental data from patent US9169231B2, “Anti-obesity agent comprising compound containing benzotropolone ring” (SUNTORY HOLDINGS LIMITED, priority 2009, dated 2015).
Like-named read-outs stand apart in the source and are kept apart here.

How the values were obtained:
Assay type in all cases: biochemical
[1] = target: T1, porcine pancreatic lipase (Sus scrofa, UniProt P00591); test: Measurement of lipase inhibitory activity (Example 6; 4-MUO substrate, fluorescence)
T1 construct: purchased Sigma-Aldrich Corp
T1 sequence (P00591 1-450): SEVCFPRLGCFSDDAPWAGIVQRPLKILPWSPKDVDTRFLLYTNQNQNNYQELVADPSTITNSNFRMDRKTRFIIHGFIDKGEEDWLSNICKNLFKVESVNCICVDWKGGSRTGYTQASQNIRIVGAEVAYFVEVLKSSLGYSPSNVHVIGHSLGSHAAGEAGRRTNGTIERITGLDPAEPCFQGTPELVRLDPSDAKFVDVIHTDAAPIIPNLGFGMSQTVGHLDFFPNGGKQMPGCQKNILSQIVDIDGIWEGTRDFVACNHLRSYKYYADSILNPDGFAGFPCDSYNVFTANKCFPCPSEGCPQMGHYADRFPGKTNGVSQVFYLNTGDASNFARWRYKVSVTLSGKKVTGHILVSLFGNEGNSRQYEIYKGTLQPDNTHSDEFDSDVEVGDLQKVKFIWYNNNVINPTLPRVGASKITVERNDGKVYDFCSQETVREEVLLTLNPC
Description: The measurement of lipase activity was performed by using as a substrate the oleate ester of fluorescent 4-methylumbelliferone (4-MUO; Sigma-Aldrich Corp.) to measure the fluorescence of 4-methylumbelliferone produced by a reaction. […] The following were subjected to an enzymatic measurement: the substrate 4-MUO which was dissolved into a 0.1M DMSO solution followed by dilution of the solution 4000-fold with the above buffer; and as a lipase, porcine pancreatic lipase (Sigma-Aldrich Corp.) which was prepared as a 400 U/ml solution by using the above buffer likewise.
(§1) An enzymatic reaction was initiated by the following steps under 25° C. condition: adding to a 96-well microplate 50 μl of a 4-MUO buffer solution and 25 μl of distilled water (or an aqueous sample solution) for each well; mixing them; and then adding 25 μl of a lipase buffer solution to each well. After a 30-minute reaction, 100 μl of a 0.1M citric acid buffer (pH4.2) was added to terminate the reaction, and the fluorescence of 4-methylumbelliferone (excitation wavelength: 355 nm, fluorescence wavelength: 460 nm) produced by the reaction was measured with a fluorescence plate reader (Fluoroskan Asent CF from Labsystems, Inc.)

alfa-glucosidase = test: Measurement of alfa-glucosidase inhibitory activity (Example 11; p-nitrophenyl-alfa-D-glucopyranoside, A405)
Description: A […] sodium phosphate buffer was prepared by mixing a 0.1M NaH2PO4-2H2O and a 0.1M Na2HPO4.12H2O and adjusting the mixture to pH7.0, and thereto 2 g/L of bovine serum albumin (Nacalai Tesque, Inc., F-V, pH5.2, 96% purity) and 0.2 g/L of NaN3 (Nacalai Tesque, Inc., a special grade reagent) were added. To prepare an enzyme solution, alfa-glucosidase (Wako Pure Chemical Industries, Ltd., yeast-derived, 100 units/mg) was dissolved in the above buffer so as to achieve 0.5 units/mg protein/ml (100 μg/20 ml). To prepare a substrate solution, p-nitrophenyl-alfa-D-glucopyranoside (Nacalai Tesque, Inc., a special grade reagent) was dissolved in the above buffer so as to achieve 5 mM concentration (7.525 mg/5 ml).
Among the samples used for the assays, epigallocatechin-3-O-gallate (Compound 13: EGCG), a positive control, was a product from Wako Pure Chemical Industries, Ltd., and Compounds 1, 3, 4, 5, 11, 12, 14, and 15 were products that were synthesized and purified in Example 1, 2, or 7.
These samples were adjusted so as to obtain 10 mg/ml of DMSO and the solution was diluted 2-fold in 6 steps. Using a 96-well microplate, 45 μL of the enzyme solution was added to 10 μL of the sample solution. After preincubation at 37° C. for 5 minutes, 45 μL of the substrate solution was added and absorbance at 405 nm (A405 nm) was measured. After incubation at 37° C. for 5 minutes, the absorbance A405 nm was measured. Percent inhibition was calculated as a difference in A405 nm from a solution in which only DMSO was added as a control instead of a sample, and two consecutive measurements were performed for activity of each compound.

[2] = target: T2, porcine pancreatic lipase (Type VI-S) (Sus scrofa, UniProt P00591); test: Measurement of lipase activity (Example 10; 4-MUO substrate 7.5 μM, increased DMSO); settings: Example 10 method; for IC50: substrate 7.5 μM, 25° C., 30-minute reaction, read-out: Lipase Inhibitory Activity per Mole IC50
T2 construct: purchased Sigma-Aldrich Corp. Type VI-S
T2 sequence (P00591 1-450): T1 sequence (P00591 1-450)
Description: The measurement of lipase activity was performed by using as a substrate the oleate ester of fluorescent 4-methylumbelliferone (4-MUO; Sigma-Aldrich Corp.) to measure the fluorescence of 4-methylumbelliferone produced by a reaction. In the measurement, 13 mM Tris-HCl (pH8.0) containing 150 mM NaCl and 1.36 mM CaCl2 was used as a buffer. The following were subjected to an enzymatic measurement: the substrate 4-MUO which was dissolved into a 0.01M DMSO solution followed by dilution of the solution 667-fold with the above buffer; and as a lipase, porcine pancreatic lipase (Sigma-Aldrich Corp.: Type VI-S) which was prepared as a 400 U/ml solution by using the above buffer likewise.
as §1, with “μl of 4-MUO buffer” for “μl of a 4-MUO buffer”, “water (or aqueous sample” for “water (or an aqueous sample”, “each well. […] After a” for “each well. After a”, “μl of 0.1M citric” for “μl of a 0.1M citric”, “from Labsystems, Inc.).” for “from Labsystems, Inc.)”
The inhibitory activities of test samples were determined as IC50 (μM), a sample […] which produces 50% inhibition, relative to the activity of a control (distilled water).

[3] = Example 6 method, substrate 12.5 μM, 25° C., 30-minute reaction, read-out: Lipase Inhibitory Activity per mole IC50

Molecule | IC50 [1, 3] [µM] | IC50 (alfa-glucosidase; 37° C., 5 minutes incubation) [µM] | IC50 [2] [µM] | further results
O=C(O[C@@H]1Cc2c(O)cc(O)cc2O[C@@H]1c1cc(O)c(=O)c2c(O)c(O)cc([C@@H]3Oc4cc(O)cc(O)c4C[C@@H]3O)c2c1)c1cc(O)c(=O)c2c(O)c(O)cc([C@H]3Oc4cc(O)cc(O)c4C[C@H]3O)c2c1 (stereo in doubt) [Compound 6, theadibenzotropolone A] | 0.178 | – | – | –
O=C(O[C@@H]1Cc2c(O)cc(O)cc2O[C@@H]1c1cc(O)c(=O)c2c(O)c(O)cc([C@@H]3Oc4cc(O)cc(O)c4C[C@H]3OC(=O)c3cc(O)c(=O)c4c(O)c(O)cc([C@H]5Oc6cc(O)cc(O)c6C[C@H]5OC(=O)c5cc(O)c(O)c(O)c5)c4c3)c2c1)c1cc(O)c(O)c(O)c1 (stereo in doubt) [Compound 8, theaflavin digallate trimer 2 (TFdiGA-tri2)] | 0.138 | – | – | –
O=c1c(O)cccc2cc(O)c(O)c(O)c12 [Compound 1, purprogallin] | 0.413 | 1240 | – | –
O=C(O)c1cc(O)c(=O)c2c(O)c(O)c(O)cc2c1 [Compound 2, purprogallin carboxylic acid] | – | – | – | IC50 [1]: 4.16 µM
O=C(O)c1cc(O)c(=O)c2c(O)c(O)cc([C@H]3Oc4cc(O)cc(O)c4C[C@H]3OC(=O)c3cc(O)c(O)c(O)c3)c2c1 [Compound 11, epitheaflavic acid-3-O-gallate] | 0.266 | 287 | – | –
O=c1c(O)cccc2c([C@H]3Oc4cc(O)cc(O)c4C[C@H]3O)cc(O)c(O)c12 [Compound 10, theaflavanin] | 0.984 | – | – | –
O=C(O[C@@H]1Cc2c(O)cc(O)cc2O[C@@H]1c1ccc(O)c(O)c1)c1cc(O)c(=O)c2c(O)c(O)cc([C@H]3Oc4cc(O)cc(O)c4C[C@H]3OC(=O)c3cc(O)c(O)c(O)c3)c2c1 [Compound 5, theaflavate A] | 0.202 | 116 | – | –
Oc1cccc(O)c1O [pyrogallol, reference compound] | 17.3 | – | – | –
O=C(O[C@@H]1Cc2c(O)cc(O)cc2O[C@@H]1c1ccc(O)c(O)c1)c1cc(O)c(=O)c2c(O)c(O)c(O)cc2c1 [Compound 12, (2R,3R)-2-(3,4-dihydroxyphenyl)-5,7-dihydroxychroman-3-yl2,3,4,6-tetrahydroxy-5-oxo-5H-benzo[7]annulen-8-carboxylate] | 0.207 | 159 | 0.096 | Lipase inhibitory activity (in words, compared with EGCG) [2]: stronger activity than a positive control, EGCG; alfa-glucosidase inhibitory activity (in words) (alfa-glucosidase): particularly strong activity
O=C(O)c1cc(O)c(=O)c2c(O)c(O)cc([C@H]3Oc4cc(O)cc(O)c4C[C@H]3O)c2c1 [Compound 9, epitheaflavic acid] | 4.63 | – | – | –
O=C(O[C@@H]1Cc2c(O)cc(O)cc2O[C@@H]1c1cc(O)c(=O)c2c(O)c(O)cc([C@@H]3Oc4cc(O)cc(O)c4C[C@H]3OC(=O)c3cc(O)c(O)c(O)c3)c2c1)c1cc(O)c(=O)c2c(O)c(O)cc([C@H]3Oc4cc(O)cc(O)c4C[C@H]3OC(=O)c3cc(O)c(O)c(O)c3)c2c1 (stereo in doubt) [Compound 7, theaflavin digallate trimer 1 (TFdiGA-tri1)] | 0.135 | – | – | –
O=C(O[C@@H]1Cc2c(O)cc(O)cc2O[C@@H]1c1cc(O)c(O)c2c(=O)c(O)cccc12)c1cc(O)c(O)c(O)c1 [Compound 14, theaflavanin 3-O-gallate] | – | 196 | 0.168 | Lipase inhibitory activity (in words, compared with EGCG) [2]: stronger activity than a positive control, EGCG; alfa-glucosidase inhibitory activity (in words) (alfa-glucosidase): particularly strong activity
O=C(O[C@@H]1Cc2c(O)cc(O)cc2O[C@@H]1c1cc(=O)c(O)c2c(O)c(O)c(O)cc2c1)c1cc(O)c(O)c(O)c1 [Compound 4, epitheaflagallin-3-O-gallate, reference compound] | – | 180 | 0.125 | –
epitheaflagallin [Compound 3, reference compound] | – | – | 0.956 | alfa-glucosidase inhibitory activity IC50 (alfa-glucosidase; 37° C., 5 minutes incubation): No
(−)-epigallocatechin-3-O-gallate [Compound 13, reference compound] | 0.349 | 485 | 0.349 | –
O=C(O[C@@H]1Cc2c(O)cc(O)cc2O[C@@H]1c1cc(O)c(=O)c2c(O)c(O)ccc2c1)c1cc(O)c(O)c(O)c1 [Compound 15, EGCG-catechol] | – | 103 | 0.104 | Lipase inhibitory activity (in words, compared with EGCG) [2]: stronger activity than a positive control, EGCG
